Data: ChEMBL document CHEMBL1240320, “Antibacterial lysine analogs that target lysine riboswitches” (Nat Chem Biol, 2007)
Values after ≈ are worked out from the molar mass of the structure shown. Active and inactive are the calls of the source. The rule behind the calls is not given here.

Columns and labels:
Bacillus subtilis [1] = assay: Antibacterial activity against wild type Bacillus subtilis 168 1A1 assessed as inhibition of viable spore formation at 2 mM after 22 to 24 hrs; type: functional, subsp. subtilis str. 168 1A1
Bacillus subtilis [2] = assay: Antibacterial activity against L-4-oxalysine-resistant Bacillus subtilis 168 M2 assessed as inhibition of viable spore formation at 2 mM after 22 to 24 hrs; type: functional, subsp. subtilis str. 168 M2
Bacillus subtilis [3] = assay: Antibacterial activity against Bacillus subtilis 168 1A1 after 24 hrs by CLSI method; type: functional
Nucleic Acid [4] = assay: Binding affinity to Bacillus subtilis 168 1A1 lysine riboswitch 179 lysc by in-line probing assay; type: nucleic-acid assay, Bacillus subtilis subsp. subtilis str. 168
Nucleic Acid [5] = assay: Binding affinity to Bacillus subtilis 168 1A1 lysine riboswitch 179 lysc; type: nucleic-acid assay, Bacillus subtilis subsp. subtilis str. 168
Nucleic Acid [6] = assay: Binding affinity to lysine riboswitch 179 lysc of Bacillus subtilis 168 M1 harboring G163A mutation in P4 motif; type: nucleic-acid assay, Bacillus subtilis subsp. subtilis str. 168
Bacillus subtilis [7] = assay: Antibacterial activity against Bacillus subtilis 1A40 at 1 mM after 3 hrs by CLSI method; type: functional, organism-based
Nucleic Acid [8] = assay: Binding affinity to lysine riboswitch 179 lysc of Bacillus subtilis 168 M2 harboring adenosine deletion within 95 to 97 sequence in loop E of P2 motif; type: nucleic-acid assay, Bacillus subtilis subsp. subtilis str. 168
Bacillus subtilis [9] = assay: Antibacterial activity against wild type Bacillus subtilis 168 1A1 assessed as inhibition of viable spore formation at 0.2 mM after 22 to 24 hrs; type: functional, subsp. subtilis str. 168 1A1
Bacillus subtilis [10] = assay: Antibacterial activity against Bacillus subtilis 168 M2 harboring adenosine deletion within 95 to 97 sequence in loop E of P2 motif after 24 hrs by CLSI method; type: functional
Bacillus subtilis [11] = assay: Antibacterial activity against Bacillus subtilis 168 M1 harboring G163A mutation in P4 motif after 24 hrs by CLSI method; type: functional
Bacillus subtilis [12] = assay: Antibacterial activity against Bacillus subtilis 168 1A1 at 100 uM after 24 hrs by CLSI method; type: functional, organism-based; conditions: subsp. subtilis str. 168 1A1
[13] = subsp. subtilis str. 168 1A1, 24 h
[14] = subsp. subtilis str. 168 M2, 24 h
[15] = subsp. subtilis str. 168 M1, 24 h

NCC(=O)CCC(N)C(=O)O (racemic)
Activity (Bacillus subtilis [1]): 47%
Activity (Bacillus subtilis [2]): 9%
MIC (Bacillus subtilis [3]; [13]): > 5 mM
Kd (Nucleic Acid [4]): > 1000 µM

NCCOC[C@H](N)C(=O)O
Kd (Nucleic Acid [5]): 26 µM
Kd (Nucleic Acid [6]): 29 µM
Activity (Bacillus subtilis [7]): Active
Activity (Bacillus subtilis [1]): 6%
Kd (Nucleic Acid [8]): 75 µM
Activity (Bacillus subtilis [9]): 71%
MIC (Bacillus subtilis [10]; [14]): 1.56 mM (≈ 231 µg/mL)
MIC (Bacillus subtilis [11]; [15]): 1.56 mM (≈ 231 µg/mL)
Activity (Bacillus subtilis [2]): 65%
Activity (Bacillus subtilis [12]): Active
MIC (Bacillus subtilis [3]; [13]): 0.173 mM (≈ 25.6 µg/mL)
Kd (Nucleic Acid [4]): 13 µM

N=C(N)NCCCC[C@H](N)C(=O)O
Activity (Bacillus subtilis [7]): inactive
MIC (Bacillus subtilis [3]; [13]): > 5 mM
Kd (Nucleic Acid [4]): 7 µM

Nc1ccccc1C(=O)C[C@H](N)C(=O)O [L-KYNURENINE]
MIC (Bacillus subtilis [3]; [13]): > 5 mM
Kd (Nucleic Acid [4]): > 1000 µM

CN[C@@H](CCCCN)C(=O)O
MIC (Bacillus subtilis [3]; [13]): > 5 mM
Kd (Nucleic Acid [4]): > 1000 µM

NC/C=C/CC(N)C(=O)O (racemic)
Activity (Bacillus subtilis [7]): Active
MIC (Bacillus subtilis [10]; [14]): > 5 mM
MIC (Bacillus subtilis [11]; [15]): > 5 mM
Activity (Bacillus subtilis [12]): Active
MIC (Bacillus subtilis [3]; [13]): 0.938 mM (≈ 135 µg/mL)
Kd (Nucleic Acid [4]): 0.97 µM

CC(=O)N[C@@H](CCCCN)C(=O)O
MIC (Bacillus subtilis [3]; [13]): > 5 mM
Kd (Nucleic Acid [4]): > 1000 µM

NCCS(=O)(=O)C[C@H](N)C(=O)O
Kd (Nucleic Acid [5]): 13 µM
Kd (Nucleic Acid [6]): 14 µM
Activity (Bacillus subtilis [7]): Active
Activity (Bacillus subtilis [1]): 0%
Kd (Nucleic Acid [8]): 24 µM
Activity (Bacillus subtilis [9]): 7%
MIC (Bacillus subtilis [10]; [14]): 3.44 mM (≈ 675 µg/mL)
MIC (Bacillus subtilis [11]; [15]): 1.56 mM (≈ 306 µg/mL)
Activity (Bacillus subtilis [2]): 17%
Activity (Bacillus subtilis [12]): Active
MIC (Bacillus subtilis [3]; [13]): 0.026 mM (≈ 5.1 µg/mL)
Kd (Nucleic Acid [4]): 2.5 µM

Nc1cc(C[C@H](N)C(=O)O)ccc1O
Activity (Bacillus subtilis [1]): 75%
MIC (Bacillus subtilis [3]; [13]): > 5 mM
Kd (Nucleic Acid [4]): > 1000 µM

CC(=O)NCCCC[C@H](N)C(=O)O
MIC (Bacillus subtilis [3]; [13]): > 5 mM
Kd (Nucleic Acid [4]): > 1000 µM

NCCCC[C@H](N)C(=O)O [LYSINE]
Kd (Nucleic Acid [5]): 1.7 µM
Kd (Nucleic Acid [6]): 3 µM
Activity (Bacillus subtilis [7]): inactive
Kd (Nucleic Acid [8]): 2.9 µM
MIC (Bacillus subtilis [10]; subsp. subtilis str. 168 M2): inactive
MIC (Bacillus subtilis [11]; subsp. subtilis str. 168 M1): inactive
MIC (Bacillus subtilis [3]; subsp. subtilis str. 168 1A1): inactive
Kd (Nucleic Acid [4]): 0.36 µM

NCCSC[C@H](N)C(=O)O
Activity (Nucleic Acid [4]; subsp. subtilis str. 168 1A1): Active

C[N+](C)(C)CCCC[C@H](N)C(=O)O [TRIMETHYLLYSINE]
MIC (Bacillus subtilis [3]; [13]): > 5 mM
Kd (Nucleic Acid [4]): > 1000 µM

CC(=N)NCCCC[C@H](N)C(=O)O [L-NIL]
Activity (Bacillus subtilis [12]): inactive
MIC (Bacillus subtilis [3]; [13]): > 5 mM
Kd (Nucleic Acid [4]): 11 µM
